# Source: the supplement of paper PMC10307832
# Columns and labels:
# Experiment in all cases: relative viability (nuclei count vs DMSO), 5 days (fraction); higher = more cells survive
# [1] = compound: C[C@@]1(C(=O)Nc2ccc(F)nc2)CCCN1c1nc(Nc2cc(C3CC3)n[nH]2)c2cccn2n1 + Cc1cc(Nc2cc(N3CCN(C)CC3)nc(Sc3ccc(NC(=O)C4CC4)cc3)n2)n[nH]1 [Tozasertib] (partner 0.1 µM)
# Outline: (§1)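 For relative viability, nuclei counts in treated wells were divided by those in vehicle wells. Lung cancer cell lines had been pin-tool dosed in 1536-well plates the day after seeding and cultured for 5 days, then fixed and stained in one step (final 0.05% Triton X-100, 1% formaldehyde, 1 ug/ml Hoechst) and imaged at 4×. Doses were one drug alone or a fixed anchor-drug dose plus five library-drug doses (not always all listed) in √10 steps, and values are duplicate-plate medians.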
# [2] = compound: C[C@@]1(C(=O)Nc2ccc(F)nc2)CCCN1c1nc(Nc2cc(C3CC3)n[nH]2)c2cccn2n1 + CC(=O)c1c(C)c2cnc(Nc3ccc(N4CCNCC4)cn3)nc2n(C2CCCC2)c1=O [Palbociclib] (partner 0.5 µM)
# Outline: as §1
# [3] = compound: C[C@@]1(C(=O)Nc2ccc(F)nc2)CCCN1c1nc(Nc2cc(C3CC3)n[nH]2)c2cccn2n1 + N=C(N)NC(=N)NCCc1ccccc1 [Phenformin] (partner 250 µM)
# Outline: as §1
# [4] = compound: C[C@@]1(C(=O)Nc2ccc(F)nc2)CCCN1c1nc(Nc2cc(C3CC3)n[nH]2)c2cccn2n1 + Cc1nc(NC(=O)N2CCC[C@H]2C(N)=O)sc1-c1ccnc(C(C)(C)C(F)(F)F)c1 [Alpelisib] (partner 2 µM)
# Outline: as §1
Cell Line,relative viability ([1]; first compound 0.04 µM),relative viability ([1]; first compound 0.1265 µM),relative viability ([1]; first compound 0.4 µM),relative viability ([1]; first compound 1.265 µM),relative viability ([2]; first compound 0.04 µM),relative viability ([2]; first compound 0.1265 µM),relative viability ([2]; first compound 0.4 µM),relative viability ([2]; first compound 1.265 µM),relative viability ([3]; first compound 0.04 µM),relative viability ([3]; first compound 0.1265 µM),relative viability ([3]; first compound 0.4 µM),relative viability ([3]; first compound 1.265 µM),relative viability ([4]; first compound 0.04 µM),relative viability ([4]; first compound 0.1265 µM),relative viability ([4]; first compound 0.4 µM),relative viability ([4]; first compound 1.265 µM)
EMC-BAC-2,0.25,0.277,0.215,0.201,0.393,0.333,0.331,0.369,0.472,0.437,0.399,0.313,0.634,0.664,0.613,0.818
EPLC-272H,0.182,–,0.178,0.287,0.253,0.308,0.285,0.261,0.315,–,0.251,0.275,1.03,0.876,0.719,1.1
H3255,0.695,0.781,0.656,0.582,0.314,0.326,0.299,0.317,0.298,0.372,0.346,0.332,0.713,0.771,0.514,0.699
HARA,0.367,0.103,0.0758,0.79,0.238,0.189,0.159,0.218,0.431,0.386,0.395,0.442,0.73,0.681,0.569,0.697
HCC-15,0.403,0.337,0.119,0.169,0.667,0.579,0.529,0.598,0.387,0.209,0.27,0.259,0.896,0.757,0.829,0.937
HCC-44,0.858,0.616,0.574,0.362,0.846,0.904,0.803,0.885,0.178,0.116,0.134,0.0862,0.666,0.698,0.552,0.783
HCC-78,0.37,0.27,0.308,0.33,0.446,0.377,0.464,0.363,0.798,0.452,0.346,0.319,0.321,0.196,0.23,0.257
HCC-366,0.677,0.102,0.0503,0.637,0.338,0.313,0.28,0.243,0.66,0.54,0.596,0.186,0.205,0.162,0.141,0.163
HCC-827,0.443,0.491,0.373,0.42,0.418,0.466,0.48,0.459,0.431,0.402,0.371,0.443,0.987,1,0.93,1.01
HOP-62,0.371,0.393,0.298,0.337,0.51,0.42,0.359,0.475,0.672,0.598,0.635,0.762,1.04,0.843,0.897,1.11
IA-LM,–,–,–,–,–,–,–,–,–,–,–,–,0.83,0.674,0.69,0.698
